According to US6833364B1, “Substituted pyrazole derivatives” (Bayer HealthCare AG, priority 1998, dated 2004):
Each block holds one molecule with its values, some of them ahead of it.

Tests used:
anaesthetized rats = assay: Blood pressure measurements in anaesthetized rats; format: in vivo; details: anaesthetized male Wistar rats
Method: Blood Pressure Measurements in Anaesthetized Rats
Male Wistar rats having a bodyweight of 300-350 g are anaesthetized with Thiopental (100 mg/kg i.p.). After tracheotomy, a catheter is inserted into the femoral artery for blood pressure measurement. The substances to be tested are administered orally in Transcutol, Cremophor EL, H2O (10%/20%/70%) in a volume of 1 ml/kg.

[1] = system: human platelets stimulated with collagen; assay: Inhibition of platelet aggregation in vitro (collagen-induced); format: cell-based; details: 10 min, washed human platelets, 10 min incubation at 37° C.
Method: To determine the cardiovascular action, the following investigations were carried out: In in vitro investigations on the isolated enzyme and on cells of vascular origin, the effect on guanylate cyclase-dependent cGMP formation was tested with and without NO donor. The anti-aggregatory properties were shown on human platelets stimulated with collagen. The vasorelaxant action was determined in rabbit aortal rings preconcentrated with phenylephrine. The hypotensive action was investigated in anaesthetized and awake rats.
To determine the platelet-aggregation, blood from healthy volunteers of both sexes was used. As an anticoagulant, 9 parts of blood were admixed to one part of 3.8% strength sodium citrate solution. The blood was centrifuged at 900 rpm for 20 min. The pH of the platelet-rich plasma obtained was adjusted to pH 6.5 using ACD solution (sodium citrate/citric acid/glucose). The platelets were subsequently centrifuged off and resuspended in buffer and once more centrifuged off. The platelet pellet was suspended in buffer and mixed with an additional 2 mmol/l of CaCl2.
To measure the aggregation, aliquots of the platelet suspension were incubated with the substance to tested at 37° C. for 10 min.

rabbit aortal rings = assay: Vasorelaxant action in vitro, aortal rings contracted with phenylephrine; details: Oryctolagus cuniculus; rabbit aorta rings, phenylephrine contraction; read-out: IC50 (concentration reducing height of phenylephrine contraction by 50%)
Method: Vasorelaxant Action in vitro
Rabbits are anaesthetized by a blow to the neck and exanguinated. The aorta is removed, freed from adhering tissue, divided into 1.5 mm wide rings and individually transferred under a pretension into 5 ml organ baths containing a warm, carbogen-aerated Krebs-Henseleit solution at 37° C. of the following composition (mM): NaCl: 119; KCl: 4.8; CaCl2×2 H2O: 1; MgSO4×7 H2O; 1.4; KH2PO4: 1.2; NaHCO3: 25; glucose: 10. The contractility is detected using Statham UC2 cells, amplified and digitalized by means of A/D converters (DAS-1802 HC, Keithley Instruments Munich), and recorded in parallel on linear recorders. To produce a contraction, phenylephrin is added to the bath cumulatively in increasing concentration. After several control cycles, the substance to be investigated is investigated in each further passage in increasing dosage in each case, and the height of the contraction is compared with the height of the contraction achieved in the last preliminary passage. From this, the concentration which is necessary in order to reduce the height of the control value by 50% (IC50) is calculated. The standard administration volume is 5 μl, and the proportion of DMSO in the bath solution corresponds to 0.1%.

awake rabbits = assay: Erection-promoting action of guanylate cyclase stimulators in awake rabbits; format: in vivo, chinchilla rabbits; details: for Erection-promoting effect, +SNP i.v.: with sodium nitroprusside 0.2 mg/kg i.v. simultaneously; for Erection-promoting effect, +SNP po: sodium nitroprusside 0.2 mg/kg i.v. 30 min later
Excerpt: For a complete and lasting erection to occur, the cavernous arteries and the entire cavernous body architecture, which is formed by a network of smooth muscle cells and collagen connective tissue, has to be at maximum dilation so that the corpus cavernosum can fill completely with blood (Anderson K.-E. and Wagner G., “Physiology of Penile Erection.”. Physiological Reviews 75, 191-236 (1995); Meinhardt W. Kropmann R F, Vermeig P, Lycclama a Nigelholt and Zwartendijk J. “The Influence of Medication on Erectile dysfunction.” Int. J. of Impotence Res. 9, 17-26 (1997). Relaxation of smooth muscles is mediated by NO which, in the case of sexual stimulation, is released by non-adrenergic, non-cholinergic nerve fibres in the endothelial cells of the blood vessels of the corpus cavernosum. NO activates guanylate cyclase, and the resulting increase in cGMP leads to dilation of the smooth muscles of the corpus cavernosum and consequently to an erection. To test the efficacy of the substances according to the invention, awake rabbits were used. The species rabbit was chosen since neurophysiology, haemodynamic and the control of contraction and relaxation of the smooth muscles of the corpus cavernosum of rabbit and man are quite similar (Meyer M F, Taher H., Krah H., Staubesand J., Becker A J, Kircher M, Mayer B., Jonas U., Forsmann W G., Stief Ch.G. “Intracavenous Application of SIN-1 in Rabbit and Man: Functional and Toxcological Results.” Annals Urol. 27, 179-182 (1993); Taub H C, Lerner S E, Melman A, Christ G J “Relationship between contraction and relaxation in human and rabbit corpus cavernosum.” Urology 42, 698-671, (1993).
Adult male chinchilla rabbits having a weight of 3-5 kg are, after delivery, adapted for several days in isolation. They have free access to water and can feed for two hours per day. The animals are kept in a 10/14 hour day/night rhythm (light switched on from 8.00 hours onwards). The room temperature is 22-24° C.
The animals are weighed directly before the start of the experiment. For intravenous administration, the substances according to the invention were dissolved in a mixture of Transcutol (GATTEFOSSE GmbH ) diluted with 20% Cremophor (BASF) and water in a ratio of 3/7. Sodium nitroprusside was dissolved in 0.9% NaCl. The substances were injected at the dosages stated in the table in a volume of 0.5 ml/kg into the auricular vein. For oral administration, the test substances were dissolved in a mixture of glycerol: water: polyethylene glycol 6:10:9.69 and administered at the dosages stated in the table in a volume of 1 ml/kg using the stomach tube.
The effect of guanylate cyclase stimulators is increased by NO donors.
The sodium nitroprusside was injected into the auricular vein at a dosage of 0.2 mg/kg simultaneously with the substance according to the invention. If the substance according to the invention was administered orally, the sodium nitroprusside was injected into the auricular vein of these animals 30 min after the oral administration. Corresponding controls were carried out using the solvent and using sodium nitroprusside on its own.
At rest, the penis of the rabbit is not visible in the pubic region and is covered completely by the sheath. The erection is assessed by measuring the length of the protruding penis with a calliper square. Measurements are carried out 5, 10, 15, 30, 45, 60, 120 and 180 min. after the administration of the substance. The effect is calculated as the product of the length of the penis which is not covered by fur in [mm] and the time for which the erection persists in [min].
The substances were administered in the dosages stated. The sodium nitroprusside was in each case administered i.v., at 0.2 mg/kg. If the substance according to the invention was administered i.v., the sodium nitroprusside was administered simultaneously, if the substance according to the invention was administered orally, it was administered 30 min later. […]

[2] = system: soluble guanylate cyclase; assay: Stimulation of soluble guanylate cyclase in primary endothelial cells (intracellular cGMP); format: cell-based; details: pig aortic primary endothelial cells, 10 min
Method: Stimulation of Soluble Guanylate Cyclase in Primary Endothelial Cells
Primary endothelial cells were isolated from pig aortas by treatment with collagenase soln. The cells were then cultured in culture medium at 37 °C./5% CO2 until confluence was reached. For the investigations, the cells were passaged, inoculated into 24-well cell culture plates and subcultured until reaching confluence (˜2×10^5 cells/well). For the stimulation of endothelial guanylate cyclase, the culture medium was aspirated and the cells were washed once with Ringer solution. After removing the Ringer solution, the cells were incubated for 10 minutes, at 37° C./5% CO2 in stimulation buffer. […] After a further 10 minutes the buffer solution was aspirated and cold buffer at 4° C. was added to the cells. The cells were then lysed at −20° C. for 16 hours. The supernatants containing the intracellular cGMP were then removed and the cGMP concentration was determined by means of the cGMP-SPA system (Amersham Buchler, Brunswick).

melting point: 208 °C
Compound: Nc1nc(-c2nn(Cc3ccccc3F)c3ncccc23)ncc1C1CCCC1 [Example 3, 3-(4-Amino-5-cyclopentylpyrimidin-2-yl)-1-(2-fluorobenzyl)-1H-pyrazolo[3,4-b]pyridine]

melting point: 214 °C
Compound: Nc1nc(-c2nn(Cc3ccccc3F)c3ncccc23)ncc1C1CCC1 [Example 2, 3-(4-Amino-5-cyclobutylpyrimidin-2-yl)-1-(2-fluorobenzyl)-1H-pyrazolo[3,4-b]pyridine]

IC50 [1]: 3 nM
IC50 (rabbit aortal rings): 200 nM
Compound: Nc1nc(-c2nn(Cc3ccccc3F)c3ncccc23)ncc1C1CC1 [Example 1, 3-(4-Amino-5-cyclopropylpyrimidin-2-yl)-1-(2-fluorobenzyl)-1H-pyrazolo[3,4-b]pyridine]
Max. reduction in blood pressure (anaesthetized rats; 1 mg/kg p.o.): 23 mm Hg
Time (of max. reduction in blood pressure) (anaesthetized rats; 1 mg/kg p.o.): 20 min
Max. reduction in blood pressure (anaesthetized rats; 3 mg/kg p.o.): 37 mm Hg
Time (of max. reduction in blood pressure) (anaesthetized rats; 3 mg/kg p.o.): 40 min
Erection-promoting effect, +SNP i.v. (awake rabbits; 0.3 mg/kg i.v.): 140 [mm] × [min]
Erection-promoting effect, +SNP i.v. (awake rabbits; 1 mg/kg i.v.): 369 [mm] × [min]
Erection-promoting effect, +SNP po (awake rabbits; 1 mg/kg po): 184 [mm] × [min]
Erection-promoting effect, +SNP po (awake rabbits; 3 mg/kg po): 233 [mm] × [min]
Erection-promoting effect, +SNP po (awake rabbits; 10 mg/kg po): 375 [mm] × [min]
Erection-promoting effect, +SNP po (awake rabbits; 30 mg/kg po): 804 [mm] × [min]
Erection-promoting effect, −SNP po (awake rabbits; 30 mg/kg po, without sodium nitroprusside): 418 [mm] × [min]
cGMP ([2]; concentration 0.1 μM): 2.2 pmol/well
cGMP ([2]; concentration 0.3 μM): 4.0 pmol/well
cGMP ([2]; concentration 1.0 μM): 6.9 pmol/well
cGMP ([2]; concentration 3.0 μM): 8.5 pmol/well
cGMP ([2]; concentration 10 μM): 14.6 pmol/well

melting point: 213 °C
Compound: Nc1nc(-c2nn(Cc3ccccc3F)c3ncccc23)ncc1C1CCCCC1 [Example 4, 3(4-Amino-5-cyclohexylpyrimidin-2-yl)-1-(2-fluorobenzyl)-1H-pyrazolo[3,4-b]pyridine]
